Assay results: paper PMC5078040 (Oncotarget, 2016)

Assays:
[1] = target: T1, ABL1(Q252H)-phosphorylated (Homo sapiens, UniProt P00519, Q252H); test: KinomeScan; assay type: binding; settings: 1uM
T1 construct: purchased DiscoveRx KINOMEscan

[2] = target: T2, ABL1(T315I)-nonphosphorylated (Homo sapiens, UniProt P00519, T315I); test: KinomeScan; assay type: binding; settings: 1uM
T2 construct: purchased DiscoveRx KINOMEscan

ABL2 = target: T3, ABL2 (Homo sapiens, UniProt P42684); test: KinomeScan; assay type: binding; settings: 1uM
T3 construct: purchased DiscoveRx KINOMEscan

BUB1 = target: T4, BUB1 (Homo sapiens, UniProt O43683); test: KinomeScan; assay type: binding; settings: 1uM
T4 construct: purchased DiscoveRx KINOMEscan

CAMK2G = target: T5, CAMK2G (Homo sapiens, UniProt Q13555); test: KinomeScan; assay type: binding; settings: 1uM
T5 construct: purchased DiscoveRx KINOMEscan

CDC2L5 = target: T6, CDC2L5 (Homo sapiens, UniProt Q14004); test: KinomeScan; assay type: binding; settings: 1uM
T6 construct: purchased DiscoveRx KINOMEscan

CDKL5 = target: T7, CDKL5 (Homo sapiens, UniProt O76039); test: KinomeScan; assay type: binding; settings: 1uM
T7 construct: purchased DiscoveRx KINOMEscan

DYRK1A = target: T8, DYRK1A (Homo sapiens, UniProt Q13627); test: KinomeScan; assay type: binding; settings: 1uM
T8 construct: purchased DiscoveRx KINOMEscan

EIF2AK1 = target: T9, EIF2AK1 (Homo sapiens, UniProt Q9BQI3); test: KinomeScan; assay type: binding; settings: 1uM
T9 construct: purchased DiscoveRx KINOMEscan

EPHB2 = target: T10, EPHB2 (Homo sapiens, UniProt P29323); test: KinomeScan; assay type: binding; settings: 1uM
T10 construct: purchased DiscoveRx KINOMEscan

EPHB4 = target: T11, EPHB4 (Homo sapiens, UniProt P54760); test: KinomeScan; assay type: binding; settings: 1uM
T11 construct: purchased DiscoveRx KINOMEscan

GRK1 = target: T12, GRK1 (Homo sapiens, UniProt Q15835); test: KinomeScan; assay type: binding; settings: 1uM
T12 construct: purchased DiscoveRx KINOMEscan

HUNK = target: T13, HUNK (Homo sapiens, UniProt P57058); test: KinomeScan; assay type: binding; settings: 1uM
T13 construct: purchased DiscoveRx KINOMEscan

LATS2 = target: T14, LATS2 (Homo sapiens, UniProt Q9NRM7); test: KinomeScan; assay type: binding; settings: 1uM
T14 construct: purchased DiscoveRx KINOMEscan
T14 sequence (Q9NRM7 whole entry): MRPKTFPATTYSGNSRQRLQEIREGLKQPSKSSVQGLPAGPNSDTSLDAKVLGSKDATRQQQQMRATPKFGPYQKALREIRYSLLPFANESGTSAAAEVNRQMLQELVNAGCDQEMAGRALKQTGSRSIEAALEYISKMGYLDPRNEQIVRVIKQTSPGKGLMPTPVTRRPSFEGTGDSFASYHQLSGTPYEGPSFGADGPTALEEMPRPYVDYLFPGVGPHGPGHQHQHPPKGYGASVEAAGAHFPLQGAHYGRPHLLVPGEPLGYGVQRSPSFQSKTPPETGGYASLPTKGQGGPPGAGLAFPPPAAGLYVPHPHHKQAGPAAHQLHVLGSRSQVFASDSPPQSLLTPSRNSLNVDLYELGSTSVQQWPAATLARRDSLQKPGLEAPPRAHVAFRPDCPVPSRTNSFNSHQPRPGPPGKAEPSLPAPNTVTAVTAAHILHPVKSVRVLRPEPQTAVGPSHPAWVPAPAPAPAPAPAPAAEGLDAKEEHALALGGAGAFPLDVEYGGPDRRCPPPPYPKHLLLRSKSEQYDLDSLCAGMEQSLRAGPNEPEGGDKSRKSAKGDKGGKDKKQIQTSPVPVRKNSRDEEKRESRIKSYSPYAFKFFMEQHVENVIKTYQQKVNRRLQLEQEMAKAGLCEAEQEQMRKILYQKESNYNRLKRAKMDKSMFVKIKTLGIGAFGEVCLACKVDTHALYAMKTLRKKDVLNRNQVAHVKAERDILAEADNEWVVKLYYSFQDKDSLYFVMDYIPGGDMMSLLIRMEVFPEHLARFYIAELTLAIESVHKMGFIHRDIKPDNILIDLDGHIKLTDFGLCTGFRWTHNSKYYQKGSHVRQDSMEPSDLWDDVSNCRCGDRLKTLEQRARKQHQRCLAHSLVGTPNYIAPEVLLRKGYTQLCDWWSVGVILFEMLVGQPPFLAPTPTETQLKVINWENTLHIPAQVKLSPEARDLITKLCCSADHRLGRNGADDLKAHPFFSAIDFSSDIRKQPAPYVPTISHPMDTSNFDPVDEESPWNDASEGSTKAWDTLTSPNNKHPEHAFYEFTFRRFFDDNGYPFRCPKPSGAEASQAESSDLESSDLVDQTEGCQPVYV

LZK = target: T15, LZK (Homo sapiens, UniProt O43283); test: KinomeScan; assay type: binding; settings: 1uM
T15 construct: purchased DiscoveRx KINOMEscan

MELK = target: T16, MELK (Homo sapiens, UniProt Q14680); test: KinomeScan; assay type: binding; settings: 1uM
T16 construct: purchased DiscoveRx KINOMEscan

MLCK = target: T17, MLCK (Homo sapiens, UniProt Q32MK0); test: KinomeScan; assay type: binding; settings: 1uM
T17 construct: purchased DiscoveRx KINOMEscan

MST3 = target: T18, MST3 (Homo sapiens, UniProt Q9Y6E0); test: KinomeScan; assay type: binding; settings: 1uM
T18 construct: purchased DiscoveRx KINOMEscan

MST4 = target: T19, MST4 (Homo sapiens, UniProt Q9P289); test: KinomeScan; assay type: binding; settings: 1uM
T19 construct: purchased DiscoveRx KINOMEscan

MYLK = target: T20, MYLK (Homo sapiens, UniProt Q15746); test: KinomeScan; assay type: binding; settings: 1uM
T20 construct: purchased DiscoveRx KINOMEscan

MYLK2 = target: T21, MYLK2 (Homo sapiens, UniProt Q9H1R3); test: KinomeScan; assay type: binding; settings: 1uM
T21 construct: purchased DiscoveRx KINOMEscan

PCTK2 = target: T22, PCTK2 (Homo sapiens, UniProt Q00537); test: KinomeScan; assay type: binding; settings: 1uM
T22 construct: purchased DiscoveRx KINOMEscan

PDPK1 = target: T23, PDPK1 (Homo sapiens, UniProt O15530); test: KinomeScan; assay type: binding; settings: 1uM
T23 construct: purchased DiscoveRx KINOMEscan

PIK3C2G = target: T24, PIK3C2G (Homo sapiens, UniProt O75747); test: KinomeScan; assay type: binding; settings: 1uM
T24 construct: purchased DiscoveRx KINOMEscan

PIK3CA(E542K) = target: T25, PIK3CA(E542K) (Homo sapiens, UniProt P42336, E542K); test: KinomeScan; assay type: binding; settings: 1uM
T25 construct: purchased DiscoveRx KINOMEscan
T25 sequence (P42336 whole entry E542K): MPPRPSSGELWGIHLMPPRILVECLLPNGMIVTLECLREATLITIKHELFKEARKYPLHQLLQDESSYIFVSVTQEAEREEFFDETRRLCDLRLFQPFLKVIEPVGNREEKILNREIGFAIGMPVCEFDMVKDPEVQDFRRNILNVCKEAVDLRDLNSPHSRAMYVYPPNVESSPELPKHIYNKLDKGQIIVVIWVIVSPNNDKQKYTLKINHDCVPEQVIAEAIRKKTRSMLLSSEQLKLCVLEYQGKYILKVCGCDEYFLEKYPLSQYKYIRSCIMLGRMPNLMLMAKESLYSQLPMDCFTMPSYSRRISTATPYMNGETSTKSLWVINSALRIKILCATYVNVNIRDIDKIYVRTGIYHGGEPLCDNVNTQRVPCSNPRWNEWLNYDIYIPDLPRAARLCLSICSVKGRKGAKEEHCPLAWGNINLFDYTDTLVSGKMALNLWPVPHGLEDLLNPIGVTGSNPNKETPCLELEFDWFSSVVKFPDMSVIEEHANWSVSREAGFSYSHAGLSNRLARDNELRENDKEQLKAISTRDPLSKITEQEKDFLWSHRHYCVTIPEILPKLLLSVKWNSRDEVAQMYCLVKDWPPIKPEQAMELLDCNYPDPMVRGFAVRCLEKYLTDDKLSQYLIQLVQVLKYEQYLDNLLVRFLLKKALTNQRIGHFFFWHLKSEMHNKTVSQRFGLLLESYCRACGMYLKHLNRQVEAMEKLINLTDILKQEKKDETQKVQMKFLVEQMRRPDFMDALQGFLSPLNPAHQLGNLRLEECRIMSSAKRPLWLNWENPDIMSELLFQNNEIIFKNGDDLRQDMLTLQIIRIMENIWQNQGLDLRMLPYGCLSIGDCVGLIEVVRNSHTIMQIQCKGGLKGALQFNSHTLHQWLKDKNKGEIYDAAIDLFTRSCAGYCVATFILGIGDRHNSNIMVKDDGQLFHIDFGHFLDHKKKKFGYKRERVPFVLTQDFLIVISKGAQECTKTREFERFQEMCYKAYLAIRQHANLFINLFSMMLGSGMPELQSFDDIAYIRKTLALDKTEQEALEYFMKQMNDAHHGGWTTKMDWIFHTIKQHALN

PIK3CA(I800L) = target: T26, PIK3CA(I800L) (Homo sapiens, UniProt P42336, I800L); test: KinomeScan; assay type: binding; settings: 1uM
T26 construct: purchased DiscoveRx KINOMEscan
T26 sequence (P42336 whole entry I800L): as the sequence (P42336 whole entry E542K) above, with K542E, I800L counted along it

PIM2 = target: T27, PIM2 (Homo sapiens, UniProt Q9P1W9); test: KinomeScan; assay type: binding; settings: 1uM
T27 construct: purchased DiscoveRx KINOMEscan
T27 sequence (Q9P1W9 whole entry): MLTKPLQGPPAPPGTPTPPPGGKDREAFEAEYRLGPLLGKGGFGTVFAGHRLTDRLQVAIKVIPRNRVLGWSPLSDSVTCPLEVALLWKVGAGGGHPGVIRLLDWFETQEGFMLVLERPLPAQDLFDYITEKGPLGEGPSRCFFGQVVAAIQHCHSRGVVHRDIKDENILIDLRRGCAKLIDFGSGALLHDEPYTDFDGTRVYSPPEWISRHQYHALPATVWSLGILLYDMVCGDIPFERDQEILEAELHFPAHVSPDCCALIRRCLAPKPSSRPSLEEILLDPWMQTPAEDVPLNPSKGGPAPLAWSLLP

PRKD3 = target: T28, PRKD3 (Homo sapiens, UniProt O94806); test: KinomeScan; assay type: binding; settings: 1uM
T28 construct: purchased DiscoveRx KINOMEscan

PRKG1 = target: T29, PRKG1 (Homo sapiens, UniProt Q13976); test: KinomeScan; assay type: binding; settings: 1uM
T29 construct: purchased DiscoveRx KINOMEscan

RAF1 = target: T30, RAF1 (Homo sapiens, UniProt P04049); test: KinomeScan; assay type: binding; settings: 1uM
T30 construct: purchased DiscoveRx KINOMEscan

RIPK4 = target: T31, RIPK4 (Homo sapiens, UniProt P57078); test: KinomeScan; assay type: binding; settings: 1uM
T31 construct: purchased DiscoveRx KINOMEscan

ROS1 = target: T32, ROS1 (Homo sapiens, UniProt P08922); test: KinomeScan; assay type: binding; settings: 1uM
T32 construct: purchased DiscoveRx KINOMEscan

[3] = target: T33, RSK1(Kin.Dom.1-N-terminal) (Homo sapiens, UniProt Q15418); test: KinomeScan; assay type: binding; settings: 1uM
T33 construct: RSK1(Kin.Dom.1-N-terminal); purchased DiscoveRx KINOMEscan

[4] = target: T34, RSK3(Kin.Dom.1-N-terminal) (Homo sapiens, UniProt Q15349); test: KinomeScan; assay type: binding; settings: 1uM
T34 construct: RSK3(Kin.Dom.1-N-terminal); purchased DiscoveRx KINOMEscan

SGK2 = target: T35, SGK2 (Homo sapiens, UniProt Q9HBY8); test: KinomeScan; assay type: binding; settings: 1uM
T35 construct: purchased DiscoveRx KINOMEscan

STK33 = target: T36, STK33 (Homo sapiens, UniProt Q9BYT3); test: KinomeScan; assay type: binding; settings: 1uM
T36 construct: purchased DiscoveRx KINOMEscan

TAK1 = target: T37, TAK1 (Homo sapiens, UniProt O43318); test: KinomeScan; assay type: binding; settings: 1uM
T37 construct: purchased DiscoveRx KINOMEscan
T37 sequence (O43318 whole entry): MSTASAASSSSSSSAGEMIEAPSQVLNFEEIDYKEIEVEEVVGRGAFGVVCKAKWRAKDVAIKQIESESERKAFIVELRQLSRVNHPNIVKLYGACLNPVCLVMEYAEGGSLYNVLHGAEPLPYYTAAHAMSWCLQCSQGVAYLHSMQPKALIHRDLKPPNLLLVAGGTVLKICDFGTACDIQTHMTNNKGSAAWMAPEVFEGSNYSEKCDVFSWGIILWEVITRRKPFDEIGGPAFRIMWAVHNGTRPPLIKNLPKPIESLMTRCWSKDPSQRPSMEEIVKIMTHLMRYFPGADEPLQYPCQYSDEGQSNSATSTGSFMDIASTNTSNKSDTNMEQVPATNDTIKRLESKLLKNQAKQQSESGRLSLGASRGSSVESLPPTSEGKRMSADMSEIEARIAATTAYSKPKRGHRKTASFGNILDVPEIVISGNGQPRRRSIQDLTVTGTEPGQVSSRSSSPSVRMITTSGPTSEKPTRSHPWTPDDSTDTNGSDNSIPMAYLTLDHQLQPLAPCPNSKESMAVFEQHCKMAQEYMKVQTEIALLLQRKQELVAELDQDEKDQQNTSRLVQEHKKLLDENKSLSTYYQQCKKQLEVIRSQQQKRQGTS

TIE2 = target: T38, TIE2 (Homo sapiens, UniProt Q02763); test: KinomeScan; assay type: binding; settings: 1uM
T38 construct: purchased DiscoveRx KINOMEscan

TNNI3K = target: T39, TNNI3K (Homo sapiens, UniProt Q59H18); test: KinomeScan; assay type: binding; settings: 1uM
T39 construct: purchased DiscoveRx KINOMEscan

ULK2 = target: T40, ULK2 (Homo sapiens, UniProt Q8IYT8); test: KinomeScan; assay type: binding; settings: 1uM
T40 construct: purchased DiscoveRx KINOMEscan

PI3Kα = PI3Kα (Homo sapiens, UniProt P42336); test: biochemical
Sequence of PI3Kα (P42336 whole entry, canonical isoform): as the sequence (P42336 whole entry E542K) above, with K542E counted along it
Sequence of PI3Kα (P27986 whole entry partner, canonical isoform): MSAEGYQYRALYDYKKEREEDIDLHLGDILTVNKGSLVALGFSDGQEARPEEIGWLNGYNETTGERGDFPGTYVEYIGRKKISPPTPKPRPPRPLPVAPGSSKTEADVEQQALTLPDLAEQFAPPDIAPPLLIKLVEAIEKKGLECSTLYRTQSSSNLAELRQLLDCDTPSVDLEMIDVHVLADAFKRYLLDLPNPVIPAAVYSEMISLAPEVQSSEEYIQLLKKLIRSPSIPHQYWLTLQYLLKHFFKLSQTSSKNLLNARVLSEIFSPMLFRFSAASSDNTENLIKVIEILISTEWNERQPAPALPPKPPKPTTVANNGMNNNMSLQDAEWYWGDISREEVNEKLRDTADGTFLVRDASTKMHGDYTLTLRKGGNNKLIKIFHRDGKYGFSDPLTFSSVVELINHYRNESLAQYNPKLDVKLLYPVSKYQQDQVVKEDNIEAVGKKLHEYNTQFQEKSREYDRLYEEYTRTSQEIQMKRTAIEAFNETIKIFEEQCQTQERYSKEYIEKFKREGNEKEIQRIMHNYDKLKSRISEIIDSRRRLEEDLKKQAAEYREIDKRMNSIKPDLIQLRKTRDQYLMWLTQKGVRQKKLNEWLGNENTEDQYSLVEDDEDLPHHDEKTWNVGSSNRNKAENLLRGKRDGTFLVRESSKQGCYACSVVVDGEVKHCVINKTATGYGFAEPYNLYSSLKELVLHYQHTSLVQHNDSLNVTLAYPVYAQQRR
Method: The reaction in each tube was started immediately by adding ATP and kept going for an hour under 37°C. After the tube cooled for 5 minutes at room temperature, 5 μL solvent reactions were carried out in a 384-well plate. Then 5 μL of ADP-Glo™ reagent was added into each well to stop the reaction and consume the remaining ADP within 40 minutes. At the end, 10 μL of kinase detection reagent was added into the well and incubated for 30 minutes to produce a luminescence signal. Luminescence signal was measured with an automated plate reader (Perkin-Elmer Envision) and each measurement was performed in triplicate.

PI3Kδ = PI3Kδ (Homo sapiens, UniProt O00329); test: PI3Ks isoform in cell EC50 assay (AKT phosphorylation, Western Blotting); assay type: cell-based; design: endogenous in cells; host or cells: Raji; settings: Raji cells, 1μg/ml anti-IgM, Akt phosphorylation at T308; read-out: cellular EC50 PI3K Delta
Sequence of PI3Kδ (O00329 whole entry, canonical isoform): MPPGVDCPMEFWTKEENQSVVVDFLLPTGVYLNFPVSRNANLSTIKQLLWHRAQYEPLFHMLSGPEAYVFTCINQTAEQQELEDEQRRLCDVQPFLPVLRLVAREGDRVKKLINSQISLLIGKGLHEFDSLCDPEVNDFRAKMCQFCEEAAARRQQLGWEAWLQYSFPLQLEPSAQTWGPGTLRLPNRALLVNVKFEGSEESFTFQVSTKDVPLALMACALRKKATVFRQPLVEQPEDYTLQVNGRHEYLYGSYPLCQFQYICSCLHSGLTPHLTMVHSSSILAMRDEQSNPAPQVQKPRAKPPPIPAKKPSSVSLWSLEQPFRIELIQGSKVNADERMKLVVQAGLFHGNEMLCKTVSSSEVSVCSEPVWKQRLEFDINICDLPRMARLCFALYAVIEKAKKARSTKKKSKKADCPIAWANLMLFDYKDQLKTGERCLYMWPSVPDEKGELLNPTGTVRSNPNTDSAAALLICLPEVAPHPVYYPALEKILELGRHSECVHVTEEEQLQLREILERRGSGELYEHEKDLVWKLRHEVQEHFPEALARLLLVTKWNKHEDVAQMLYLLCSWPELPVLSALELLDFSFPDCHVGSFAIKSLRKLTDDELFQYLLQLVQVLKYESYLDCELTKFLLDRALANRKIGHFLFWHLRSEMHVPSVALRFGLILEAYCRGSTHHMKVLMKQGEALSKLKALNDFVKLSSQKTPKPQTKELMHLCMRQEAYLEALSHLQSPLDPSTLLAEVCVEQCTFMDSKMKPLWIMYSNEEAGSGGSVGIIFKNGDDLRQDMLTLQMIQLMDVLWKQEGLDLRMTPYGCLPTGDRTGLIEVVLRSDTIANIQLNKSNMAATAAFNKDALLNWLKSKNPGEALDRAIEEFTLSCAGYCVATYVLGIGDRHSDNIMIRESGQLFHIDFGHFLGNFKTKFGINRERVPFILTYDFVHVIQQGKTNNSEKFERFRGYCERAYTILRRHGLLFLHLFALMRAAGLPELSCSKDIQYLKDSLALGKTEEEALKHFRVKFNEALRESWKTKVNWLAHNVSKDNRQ
Sequence of PI3Kδ (P27986 whole entry partner, canonical isoform): as the sequence (P27986 whole entry partner, canonical isoform) above

Cc1nc(NC(=O)[C@@H](N)C(C)C)sc1-c1cnc(Cl)c(NS(=O)(=O)c2ccccc2)c1 [PI3KD-IN-015]
KinomeScan ABL1(Q252H)-phosphorylated [1]: 90 | KinomeScan ABL1(T315I)-nonphosphorylated [2]: 100 | KinomeScan ABL2 (ABL2): 99 | KinomeScan BUB1 (BUB1): 100 | KinomeScan CAMK2G (CAMK2G): 100 | KinomeScan CDC2L5 (CDC2L5): 92 | KinomeScan CDKL5 (CDKL5): 87 | KinomeScan DYRK1A (DYRK1A): 89 | KinomeScan EIF2AK1 (EIF2AK1): 100 | KinomeScan EPHB2 (EPHB2): 100 | KinomeScan EPHB4 (EPHB4): 100 | KinomeScan GRK1 (GRK1): 99 | KinomeScan HUNK (HUNK): 100 | KinomeScan LATS2 (LATS2): 100 | KinomeScan LZK (LZK): 92 | KinomeScan MELK (MELK): 90 | KinomeScan MLCK (MLCK): 95 | KinomeScan MST3 (MST3): 96 | KinomeScan MST4 (MST4): 86 | KinomeScan MYLK (MYLK): 94 | KinomeScan MYLK2 (MYLK2): 84 | KinomeScan PCTK2 (PCTK2): 100 | KinomeScan PDPK1 (PDPK1): 100 | KinomeScan PIK3C2G (PIK3C2G): 65 | KinomeScan PIK3CA(E542K) (PIK3CA(E542K)): 5.4 | KinomeScan PIK3CA(I800L) (PIK3CA(I800L)): 0.5 | KinomeScan PIM2 (PIM2): 72 | KinomeScan PRKD3 (PRKD3): 100 | KinomeScan PRKG1 (PRKG1): 89 | KinomeScan RAF1 (RAF1): 100 | KinomeScan RIPK4 (RIPK4): 100 | KinomeScan ROS1 (ROS1): 99 | KinomeScan RSK1(Kin.Dom.1-N-terminal) [3]: 74 | KinomeScan RSK3(Kin.Dom.1-N-terminal) [4]: 100 | KinomeScan SGK2 (SGK2): 81 | KinomeScan STK33 (STK33): 88 | KinomeScan TAK1 (TAK1): 100 | KinomeScan TIE2 (TIE2): 89 | KinomeScan TNNI3K (TNNI3K): 95 | KinomeScan ULK2 (ULK2): 79 | IC50 (PI3Kα): 60 nM | EC50 (PI3Kδ): 13 nM
